According to patent US10590086B2, “Pharmaceutical compound” (IOmet Pharma Ltd., priority 2014, dated 2020):

Tests used:
[1] = target: T1, IDO (Homo sapiens, UniProt P14902); test: hIDO biochemical coupled assay; conditions: 45 μM L-tryptophan, read-out: hIDO biochemical assay pIC50 (converted)
Excerpt: Two different assays were employed: 1. a cell-based assay for detecting the effect of test compounds on kynurenine production in two different cancer cell types. This assay utilised cancer cells which expressed either TDO or IDO and as such was used as a means of testing compound activity at these two enzymes in a cell-based context. 2. a TDO and IDO biochemical coupled assay which utilised recombinantly produced and purified TDO and IDO enzymes in combination with the enzyme formamidase. This coupled enzyme system allowed conversion of N-formylkynurenine produced by TDO or IDO activity to kynurenine which was then quantified by fluorescence following addition of Erhlich's Reagent The protocols for these are set out below.

[2] = target: T2, TDO (Homo sapiens, UniProt P48775); test: A172 kynurenine cell-based assay; set-up: This assay utilised cancer cells which expressed either TDO or IDO; endogenous in cells; host or cells: A172 (human glioblastoma); conditions: A172 human glioblastoma cells, 48 hours, read-out: A172 Kynurenine cell based assay pIC50 (converted)
How it was run: (§1)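 First, A172 or SKOV3 cells were seeded in phenol red-free RPMI, 10% FCS, 2 mM L-glutamine, 500 μM L-tryptophan; SKOV3 received 500 ng/ml IFN-γ for IDO induction. Next came compound exposure, 48 hours, 37° C. Finally, cells were spun out, supernatant treated with Erhlich's reagent, absorbance read at 490 nm.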

[3] = target: T1, IDO; test: SKOV3 kynurenine cell-based assay (IDO induced by IFN-γ); set-up: IDO expression was induced in the SKOV3 cells by the addition of 500 ng/ml IFN-γ; endogenous in cells; host or cells: SKOV3 (human ovarian adenocarcinoma), induced with IFN-γ; conditions: 48 hours, read-out: SKOV3 Kynurenine cell based assay pIC50 (converted)
How it was run: as §1

[4] = target: T2, TDO; test: hTDO biochemical coupled assay; conditions: 330 μM L-tryptophan, read-out: hTDO biochemical assay pIC50 (converted)
[5] = SKOV3 human ovarian adenocarcinoma cells, 500 ng/ml IFN-γ, 500 μM L-tryptophan

T2 sequence (P48775 whole entry): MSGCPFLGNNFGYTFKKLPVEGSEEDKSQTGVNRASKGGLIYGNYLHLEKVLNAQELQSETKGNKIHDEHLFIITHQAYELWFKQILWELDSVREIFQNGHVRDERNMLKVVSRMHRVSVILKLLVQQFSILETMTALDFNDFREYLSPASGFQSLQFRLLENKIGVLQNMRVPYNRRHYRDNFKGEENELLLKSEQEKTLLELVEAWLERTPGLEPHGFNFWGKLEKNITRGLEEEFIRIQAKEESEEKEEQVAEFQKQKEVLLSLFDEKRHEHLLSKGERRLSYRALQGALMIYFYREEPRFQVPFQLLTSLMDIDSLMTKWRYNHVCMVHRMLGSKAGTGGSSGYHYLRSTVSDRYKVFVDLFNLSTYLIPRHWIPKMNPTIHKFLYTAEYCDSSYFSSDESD
T1 sequence (P14902 whole entry): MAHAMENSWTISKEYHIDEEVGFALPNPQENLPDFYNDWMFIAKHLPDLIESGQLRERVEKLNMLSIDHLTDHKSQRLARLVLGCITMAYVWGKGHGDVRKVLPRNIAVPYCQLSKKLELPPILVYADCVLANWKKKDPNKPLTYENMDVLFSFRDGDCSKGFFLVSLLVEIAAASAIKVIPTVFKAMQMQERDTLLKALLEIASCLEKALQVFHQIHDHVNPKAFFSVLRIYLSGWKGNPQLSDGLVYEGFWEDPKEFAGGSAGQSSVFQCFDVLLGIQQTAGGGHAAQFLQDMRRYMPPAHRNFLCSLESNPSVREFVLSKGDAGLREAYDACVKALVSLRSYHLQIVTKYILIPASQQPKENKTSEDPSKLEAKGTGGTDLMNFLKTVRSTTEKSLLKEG

SMILES | IC50 ([1]; 17 minutes, room temperature) | IC50 ([2]; 500 μM L-tryptophan) | IC50 [3, 5] | IC50 ([4]; 17 minutes, room temperature) | IC50 [1] | IC50 [2] | IC50 ([3]; SKOV3 cells, IDO induced by 500 ng/ml IFN-γ) | IC50 [4]
CCc1cc(C2CCN(S(C)(=O)=O)CC2)c2cn[nH]c2c1 [Compound 326] | 3.24 to 31.6 µM | 3.24 to 31.6 µM | 3.24 to 31.6 µM | < 3.16 µM | – | – | – | –
CC(C)C(O)c1cc(Cl)cc2[nH]ncc12 (stereo not drawn) [Compound 260] | 3.24 to 31.6 µM | < 3.16 µM | 3.24 to 31.6 µM | < 3.16 µM | – | – | – | –
O=C1NC2(CCN(c3cc(Cl)cc4[nH]ncc34)CC2)C(=O)N1Cc1ncco1 [Compound 407] | < 3.16 µM | < 3.16 µM | < 3.16 µM | < 3.16 µM | – | – | – | –
CC(C)N1C(=O)NC2(CCN(c3cc(Cl)cc4[nH]ncc34)CC2)C1=O [Compound 316] | 3.24 to 31.6 µM | < 3.16 µM | 3.24 to 31.6 µM | < 3.16 µM | – | – | – | –
CC(C)CN1C(=O)NC2(CCN(c3cc(Cl)cc4[nH]ncc34)CC2)C1=O [Compound 388] | < 3.16 µM | < 3.16 µM | < 3.16 µM | < 3.16 µM | – | – | – | –
CS(=O)(=O)N1CCC(n2cc(-c3cc(Cl)cc4[nH]ncc34)cn2)CC1 [Compound 347] | > 100 µM | < 3.16 µM | 3.24 to 31.6 µM | < 3.16 µM | – | – | – | –
CC(C)(O)c1cc(Cl)cc2[nH]ncc12 [Compound 259] | > 100 µM | < 3.16 µM | 32.4 to 100 µM | < 3.16 µM | – | – | – | –
CS(=O)(=O)N1CCC(c2cc(C3CCOCC3)cc3[nH]ncc23)CC1 [Compound 325] | > 100 µM | 32.4 to 100 µM | 32.4 to 100 µM | > 100 µM | – | – | – | –
CC1(C)CN(c2cc(Cl)cc3[nH]ncc23)CCN1S(N)(=O)=O [Compound 227] | < 3.16 µM | < 3.16 µM | < 3.16 µM | < 3.16 µM | – | – | – | –
CC(=O)N1CCN(c2cc(C#N)cc3[nH]ncc23)CC1 [Compound 323] | > 100 µM | 32.4 to 100 µM | 32.4 to 100 µM | > 100 µM | – | – | – | –
O=C1NC2(CCN(c3cc(Cl)cc4[nH]ncc34)CC2)C(=O)N1CCO [Compound 330] | < 3.16 µM | < 3.16 µM | < 3.16 µM | < 3.16 µM | – | – | – | –
OC(CC1CCOCC1)c1cc(Cl)cc2[nH]ncc12 (stereo not drawn) [Compound 289] | 32.4 to 100 µM | < 3.16 µM | 32.4 to 100 µM | < 3.16 µM | – | – | – | –
Cn1ncc2c1CCN(c1cc(Cl)cc3[nH]ncc13)C2 [Compound 369] | 3.24 to 31.6 µM | < 3.16 µM | 3.24 to 31.6 µM | < 3.16 µM | – | – | – | –
NC(=O)c1ccc(-c2cc(Cl)cc3[nH]ncc23)cc1 [Compound 256] | > 100 µM | < 3.16 µM | 3.24 to 31.6 µM | < 3.16 µM | – | – | – | –
Clc1cc(N2CC=CCC2)c2cn[nH]c2c1 [Compound 345] | 3.24 to 31.6 µM | < 3.16 µM | 3.24 to 31.6 µM | < 3.16 µM | – | – | – | –
Cc1nc2c([nH]1)CN(c1cc(C(F)(F)F)cc3[nH]ncc13)CC2 [Compound 212] | > 100 µM | < 3.16 µM | 32.4 to 100 µM | < 3.16 µM | – | – | – | –
NS(=O)(=O)N1CCC2(CCN(c3cc(Cl)cc4[nH]ncc34)CC2)C1 [Compound 361] | 3.24 to 31.6 µM | < 3.16 µM | 3.24 to 31.6 µM | < 3.16 µM | – | – | – | –
NC(=O)C1CCCN(c2cc(Cl)cc3[nH]ncc23)C1 (stereo not drawn) [Compound 199] | > 100 µM | < 3.16 µM | 32.4 to 100 µM | < 3.16 µM | – | – | – | –

SMILES | IC50 ([1]; 17 minutes, room temperature) | IC50 ([2]; 500 μM L-tryptophan) | IC50 [3, 5] | IC50 ([4]; 17 minutes, room temperature) | IC50 [1] | IC50 [2] | IC50 ([3]; SKOV3 cells, IDO induced by 500 ng/ml IFN-γ) | IC50 [4]
O=C1NCCN1C1CCN(c2cc(Cl)cc3[nH]ncc23)CC1 [Compound 410] | > 100 µM | < 3.16 µM | 3.24 to 31.6 µM | < 3.16 µM | – | – | – | –
CNC(=O)C1CCN(c2cc(Cl)cc3[nH]ncc23)CC1 [Compound 249] | 3.24 to 31.6 µM | < 3.16 µM | 3.24 to 31.6 µM | < 3.16 µM | – | – | – | –
CS(=O)(=O)N1CCC2(CCN(c3cc(Cl)cc4[nH]ncc34)CC2)C1 [Compound 349] | 32.4 to 100 µM | < 3.16 µM | 32.4 to 100 µM | < 3.16 µM | – | – | – | –
CCN1C(=O)NC2(CCN(c3cc(Cl)cc4[nH]ncc34)CC2)C1=O [Compound 315] | < 3.16 µM | < 3.16 µM | < 3.16 µM | < 3.16 µM | – | – | – | –
CC(=O)N1CCC(c2cc(C3CCCC3)cc3[nH]ncc23)CC1 [Compound 217] | > 100 µM | > 100 µM | 32.4 to 100 µM | > 100 µM | – | – | – | –
CC1(C)CN(c2cc(Cl)cc3[nH]ncc23)CCC12NC(=O)NC2=O (stereo not drawn) [Compound 424, 8-(6-chloro-1H-indazol-4-yl)-6,6-dimethyl-1,3,8-triazaspiro[4.5]decane-2,4-dione] | < 3.16 µM | < 3.16 µM | < 3.16 µM | < 3.16 µM | 0.347 µM | 0.0759 µM | 0.145 µM | 0.24 µM
O[C@@H]1CCCC[C@@H]1c1cc(Cl)cc2[nH]ncc12 [Compound 419] | > 100 µM | < 3.16 µM | > 100 µM | < 3.16 µM | – | – | – | –
OC1(c2cc(Cl)cc3[nH]ncc23)CCOCC1 [Compound 319] | 3.24 to 31.6 µM | < 3.16 µM | 32.4 to 100 µM | < 3.16 µM | – | – | – | –
Clc1cc(N2CCN(c3nccs3)CC2)c2cn[nH]c2c1 [Compound 365] | > 100 µM | < 3.16 µM | 3.24 to 31.6 µM | < 3.16 µM | – | – | – | –
CC(=O)NCCN1CCN(c2cc(Cl)cc3[nH]ncc23)CC1(C)C [Compound 421] | 3.24 to 31.6 µM | < 3.16 µM | > 100 µM | < 3.16 µM | – | – | – | –
CC(=O)N1CCN(c2cccc3[nH]ncc23)CC1(C)C [Compound 25] | 32.4 to 100 µM | < 3.16 µM | 3.24 to 31.6 µM | < 3.16 µM | – | – | – | –
CN(C)C(=O)C1CCCN(c2cc(Cl)cc3[nH]ncc23)C1 (stereo not drawn) [Compound 209] | > 100 µM | 32.4 to 100 µM | 32.4 to 100 µM | 32.4 to 100 µM | – | – | – | –
Clc1cc(N2CCCCC2)c2cn[nH]c2c1 [Compound 308] | 32.4 to 100 µM | < 3.16 µM | > 100 µM | 3.24 to 31.6 µM | – | – | – | –
CC(C)(C)CC(=O)Nc1cccc2[nH]ncc12 [Compound 4, N-(1H-indazol-4-yl)-3,3-dimethylbutanamide] | > 100 µM | 32.4 to 100 µM | > 100 µM | < 3.16 µM | – | – | – | –
Cn1ncc2c1CN(c1cc(Cl)cc3[nH]ncc13)CC2 [Compound 432] | 3.24 to 31.6 µM | < 3.16 µM | > 100 µM | < 3.16 µM | – | – | – | –
O=C1NCNC12CCN(c1cc(Cl)cc3[nH]ncc13)CC2 [Compound 397] | > 100 µM | < 3.16 µM | > 100 µM | < 3.16 µM | – | – | – | –
OC(c1ccccc1)c1cc(Cl)cc2[nH]ncc12 (stereo not drawn) [Compound 271] | > 100 µM | < 3.16 µM | 32.4 to 100 µM | < 3.16 µM | – | – | – | –
